According to PMC5830402, “Cell-based glycan arrays for probing glycan–glycan binding protein interactions” (Nature Communications, 2018):

Experiments:
ST3Gal4 (human α2-3ST) = target: T1, ST3Gal4 (human α2-3ST) (Homo sapiens, UniProt Q11206); assay: transfer to Lec2 cell surface, ECL lectin flow cytometry; biotin-azide / streptavidin detection; type: cell-based; settings: added recombinant enzyme; acceptor N-glycan LacNAc on Lec2 CHO cells; 37 °C, 1 h
T1 construct: recombinant glycosyltransferase
T1 sequence (Q11206 27-333 limits assumed): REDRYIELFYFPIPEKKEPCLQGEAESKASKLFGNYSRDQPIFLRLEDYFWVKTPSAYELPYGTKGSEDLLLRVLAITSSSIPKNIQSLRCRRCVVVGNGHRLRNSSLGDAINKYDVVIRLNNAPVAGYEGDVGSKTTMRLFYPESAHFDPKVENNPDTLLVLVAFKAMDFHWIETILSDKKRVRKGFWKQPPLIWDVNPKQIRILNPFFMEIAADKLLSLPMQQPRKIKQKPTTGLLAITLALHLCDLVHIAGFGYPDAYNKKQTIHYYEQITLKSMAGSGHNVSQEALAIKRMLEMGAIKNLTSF

ST6Gal1 (rat α2-6ST) = target: T2, ST6Gal1 (rat α2-6ST) (Rattus norvegicus, UniProt P13721); assay: as above; type: cell-based; settings: added recombinant enzyme; acceptor N-glycan LacNAc on Lec2 CHO cells; 37 °C, 1 h
T2 construct: recombinant glycosyltransferase
T2 sequence (P13721 27-403 limits assumed): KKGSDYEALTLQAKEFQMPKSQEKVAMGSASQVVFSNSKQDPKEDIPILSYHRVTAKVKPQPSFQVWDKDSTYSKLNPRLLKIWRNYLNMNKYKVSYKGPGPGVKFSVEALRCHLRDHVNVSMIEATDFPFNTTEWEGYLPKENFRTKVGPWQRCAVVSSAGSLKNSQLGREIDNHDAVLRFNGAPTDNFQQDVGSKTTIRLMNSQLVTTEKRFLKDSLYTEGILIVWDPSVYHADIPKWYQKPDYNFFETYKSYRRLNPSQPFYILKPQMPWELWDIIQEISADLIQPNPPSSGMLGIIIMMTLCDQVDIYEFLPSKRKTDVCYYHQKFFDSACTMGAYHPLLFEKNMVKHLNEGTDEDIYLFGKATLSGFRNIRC

C#CCOC(=O)N[C@H]1[C@H]([C@H](O)[C@H](O)CO)O[C@](OP(=O)(O)OC[C@H]2O[C@@H](n3ccc(N)nc3=O)[C@H](O)[C@@H]2O)(C(=O)O)C[C@@H]1O [compound 7, CMP-SiaPoc]
transfer to Lec2 cell surface, ECL lectin flow cytometry; biotin-azide / strepta (ST3Gal4 (human α2-3ST)): Upon sialylation by ST3Gal4 and ST6Gal1, Lec2 CHO cells showed a reduction in ECL binding | transfer to Lec2 cell surface, ECL lectin flow cytometry; biotin-azide / strepta (ST6Gal1 (rat α2-6ST)): Upon sialylation by ST3Gal4 and ST6Gal1, Lec2 CHO cells showed a reduction in ECL binding
